Source: publication PMC5012889, “Cardiac action of the first G protein biased small molecule apelin agonist” (Biochemical Pharmacology, 2016)
Entries after “also recorded” stand apart in the source; their conditions may differ. Counter-ions that a name gives are not always drawn. Like-named read-outs stand apart in the source and are kept apart here.

Key:
[1] = Analysis of rat plasma samples by LC-MS/MS; format: in vivo; conditions: approx. 10 min after last of three cumulative i.v. doses, heparinised samples, n = 6
Protocol: Analysis of plasma samples was performed by Peakdale Molecular (Chapel-en-la-Frith, UK). End-point blood samples were taken from rats (n = 6) following completion of three cumulative doses of CMF-019 (as described before), approximately 10 min after the last intravenous administration. The blood was collected in heparin-coated vials and spun at low speed (2000 g, 5 min), the plasma supernatant was removed and frozen. Quantitative analysis was performed using LC-MS/MS with metaprolol as an internal standard and CMF-019 to quantify CMF-019 in the samples.

[2] = Thermodynamic solubility (Cyprotex); format: physicochemical; conditions: pH 7.4, saline or isotonic, thermodynamic from solid, pH7.4, potassium salt
Protocol: (§1) CMF-019 ((S)-3-[1-(1-Ethyl-propyl)-2-thiophen-2-ylmethyl-1H-benzoimidazole-5-carbonyl]-amino-5-methyl-hexanoic acid) has previously been prepared (compound number 107 from patent US20140094450, 2014) via a minor modification of the literature procedure (Fig. 2). […] Thermodynamic solubility (potassium salt) and an in vitro murine microsomal stability of CMF-019 were performed at Cyprotex (Macclesfield, UK).

[3] = In vitro murine microsomal stability (Cyprotex); format: in vitro ADME; conditions: mouse, murine microsomes
Protocol: as §1

apelin receptor [4] = biological target: T1, apelin receptor (Homo sapiens, UniProt P35414); experiment: Bias calculations between pathways (ΔΔLogR, bias factors); conditions: compared to [Pyr1]apelin-13
T1 sequence (P35414 1-380): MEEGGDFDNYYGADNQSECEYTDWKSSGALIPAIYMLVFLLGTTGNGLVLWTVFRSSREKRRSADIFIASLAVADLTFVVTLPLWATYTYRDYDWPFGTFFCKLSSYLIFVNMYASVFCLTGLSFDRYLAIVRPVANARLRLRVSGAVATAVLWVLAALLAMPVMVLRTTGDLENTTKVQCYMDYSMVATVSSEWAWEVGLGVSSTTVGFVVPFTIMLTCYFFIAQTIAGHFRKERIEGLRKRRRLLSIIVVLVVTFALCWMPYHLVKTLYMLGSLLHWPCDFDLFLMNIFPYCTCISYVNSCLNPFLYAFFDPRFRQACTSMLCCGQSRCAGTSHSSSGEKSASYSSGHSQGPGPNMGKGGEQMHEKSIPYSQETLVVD
Protocol: β-Arrestin recruitment, β-arrestin mediated internalisation and cAMP assays were performed according to the manufacturer’s instructions (DiscoverX®, Fremont, CA) and as described previously [4].
All data are expressed as mean ± SEM values. Binding and cell-based experiments were performed in triplicate. For cell based assays, n-values are given as the number of replicates/number of experiments.

apelin receptor [5] = biological target: T2, apelin receptor (Mus musculus, UniProt Q9WV08); experiment: Competition radioligand binding, mouse whole heart homogenate
T2 construct: from tissue; host or cells: mouse whole heart homogenate
T2 sequence (Q9WV08 1-377): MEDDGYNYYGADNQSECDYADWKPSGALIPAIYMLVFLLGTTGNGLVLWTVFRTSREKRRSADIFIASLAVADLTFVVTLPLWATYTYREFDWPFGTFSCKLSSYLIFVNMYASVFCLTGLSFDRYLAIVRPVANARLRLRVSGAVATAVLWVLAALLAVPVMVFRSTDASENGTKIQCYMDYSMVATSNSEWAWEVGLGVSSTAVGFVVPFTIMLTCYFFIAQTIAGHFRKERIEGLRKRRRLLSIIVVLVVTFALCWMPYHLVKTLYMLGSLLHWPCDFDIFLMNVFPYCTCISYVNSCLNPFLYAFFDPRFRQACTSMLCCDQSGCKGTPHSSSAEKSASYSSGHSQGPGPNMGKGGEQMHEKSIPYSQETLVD
Protocol: (§2) Initial binding assays were performed by Cerep (Celle L’Evescault, France) on Chinese Hamster Ovary (CHO-K1) cells expressing the human apelin receptor. Further experiments were performed on human homogenised left ventricle (HLV, 1.5 mg/ml) and rat and mouse whole heart homogenates to determine any species variability prior to in vivo experiments. […] Experiments were performed in triplicate and data analysed using GraphPad Prism 6 (GraphPad Software, Inc. La Jolla, USA). Binding affinities were calculated by the Cheng-Prusoff methodology using measured IC50 values.

apelin receptor [6] = biological target: T1, apelin receptor; conditions: compared to [Pyr1]apelin-13
Excerpt: Statistical significance was taken as 5%.

native apelin receptor = biological target: T3, native apelin receptor (Homo sapiens, UniProt P35414); experiment: Competition radioligand binding, human left ventricle homogenate
T3 sequence (P35414 1-380): T1 sequence (P35414 1-380)
Protocol: as §2

[7] = test system: anaesthetised male Sprague–Dawley rats; experiment: Rat heart catheterisation (left ventricle pressure-volume catheter), intravenous injection; format: in vivo; conditions: for increase in dP/dtMAX (cardiac contractility): cumulative bolus
Excerpt: Male Sprague-Dawley rats (273 ± 6 g; […] Temperature was monitored throughout the surgical procedure using a rectal probe. Prior to the start of surgery, it was ensured that pain reflexes had ceased by use of a hind-paw pinch test. The surgery was completed as previously described. In brief, the right external jugular vein was cannulated, flushed with heparin solution (2%, 0.9% saline, pH5, Macopharma) and the right common carotid artery located. The catheter (Millar Inc., SPR-869) was calibrated using the MPVS Ultra system (ADIstruments) before being inserted into the carotid and advanced to the left ventricle. Once a stable pressure-volume loop could be observed, the catheter was left in place for ten minutes. […] The effects on pressure and volume were measured and the heart rate monitored to determine and maintain a suitable depth of anaesthesia. […] Data were acquired using the MPVS Ultra system (ADIstruments) and analysed using LabChart 8 (ADIstruments). Values for the maximal change in left ventricular systolic pressure (LVSP), stroke volume, cardiac output, contractility ([…] lusitropy ([…]) from baseline were calculated from the raw data and compared. Following completion of the measurements the animal was euthanised by exsanguination under high flow isoflurane.

apelin receptor [8] = biological target: T4, apelin receptor (Rattus norvegicus, UniProt Q9JHG3); experiment: Competition radioligand binding, rat whole heart homogenate
T4 construct: from tissue; host or cells: rat whole heart homogenate
T4 sequence (Q9JHG3 1-377): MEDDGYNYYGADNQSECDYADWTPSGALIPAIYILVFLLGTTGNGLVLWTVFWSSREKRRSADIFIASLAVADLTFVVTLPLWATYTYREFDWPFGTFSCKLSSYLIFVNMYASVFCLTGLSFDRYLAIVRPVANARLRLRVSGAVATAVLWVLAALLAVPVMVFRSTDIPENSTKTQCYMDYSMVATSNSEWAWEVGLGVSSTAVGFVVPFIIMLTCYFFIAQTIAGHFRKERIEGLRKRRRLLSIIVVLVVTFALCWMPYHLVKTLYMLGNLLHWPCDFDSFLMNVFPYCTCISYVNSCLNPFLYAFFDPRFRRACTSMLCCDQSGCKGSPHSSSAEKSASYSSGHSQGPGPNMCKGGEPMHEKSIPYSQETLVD
Protocol: as §2

apelin receptor [9] = biological target: T1, apelin receptor
Protocol: as §2

[10] = parameters: method as in earlier work; conditions: saline at room temperature; cited from earlier work
[11] = 500 nmol i.v., anaesthetised rats
[12] = 5000 nmol i.v., anaesthetised rats

In the case of CCC(CC)n1c(Cc2cccs2)nc2cc(C(=O)N[C@H](CC(=O)O)CC(C)C)ccc21 [CMF-019 (potassium salt)], the mean plasma concentration [1] is reported as 25.4 ± 2.5 µM and the solubility [2] is reported as 2090 µg/mL.

In the case of CCC(CC)n1c(Cc2cccs2)nc2cc(C(=O)N[C@H](CC(=O)O)CC(C)C)ccc21 [CMF-019, (S)-3-[1-(1-Ethyl-propyl)-2-thiophen-2-ylmethyl-1H-benzoimidazole-5-carbonyl]-amino-5-methyl-hexanoic acid], the half-life [3] is reported as 38 min, the “bias factor (BF)” value (apelin receptor [4]; cAMP (Gαi) over internalisation) is reported as 5828 and the “bias factor (BF)” value (apelin receptor [4]; cAMP (Gαi) over β-arrestin) is reported as 398. For the same compound, the ΔΔLogR (apelin receptor [4]; cAMP over internalisation) was 3.77 ± 0.25, the ΔΔLogR (apelin receptor [4]; cAMP over β-arrestin) was 2.60 ± 0.24 and the ΔΔLogR (apelin receptor [4]; β-arrestin over internalisation) was 1.17 ± 0.26. The Ki (apelin receptor [5]) was 1.95 nM, the “relative effectiveness (RE)” value (apelin receptor [6]; cAMP) was 4.19 and the ΔLogR (apelin receptor [6]; cAMP) was 0.62 ± 0.16. For the same compound, the “relative effectiveness (RE)” value (apelin receptor [6]; internalisation) was 7.19 × 10^−4, the ΔLogR (apelin receptor [6]; internalisation) was −3.14 ± 0.19 and the “relative effectiveness (RE)” value (apelin receptor [6]; β-arrestin) was 0.01. For the same compound, the ΔLogR (apelin receptor [6]; β-arrestin) was −1.98 ± 0.18, the Ki (native apelin receptor) was 2.63 nM and the “increase in cardiac output” value [7, 11] was 1210 ± 170 RVU/min. The “increase in stroke volume” value [7, 11] was 2.62 ± 0.31 RVU, the “increase in dP/dtMAX (cardiac contractility)” value [7, 11] was 606 ± 112 mmHg/s and the “increase in LVSP” value [7, 12] was 6.22 ± 1.98 mmHg. The “increase in dP/dtMAX (cardiac contractility)” value [7, 12] was 833 ± 152 mmHg/s, the adverse effects ([7]; any of the concentrations administered (50–5000 nmol i.v.)) was “No adverse effects were observed” and the “effect on dP/dtMIN (lusitropy)” value ([7]; i.v., anaesthetised rats) was “Neither [Pyr^1]apelin-13 nor CMF-019 altered the dP/dtMIN; also recorded: did not alter”. For the same compound, the “effect on heart rate” value ([7]; i.v., anaesthetised rats) was “without a change in heart rate”, the Ki (apelin receptor [8]) was 3.24 nM and the mean plasma concentration [1] was ~25 µM. The Ki (apelin receptor [9]) was 24.5 nM.

In the case of CC1=CC(=O)C(C2CCCCC2)=C/C1=N\OS(=O)(=O)c1ccccc1 [ML233], the solubility in saline [10] is listed as “low solubility”.
